Here are results for six compounds from PubChem BioAssay (NCI).

Structures are written as SMILES. Values joined by “and” are separate entries in the source; they are usually repeats but may differ in a detail not shown here. Equal entries are not always repeated.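 Each compound was tested at five concentrations against cells in 96-well plates for 48 hours. GI50: concentration for 50% inhibition of growth. TGI: concentration producing complete growth inhibition.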 *1 amine or outer side, *2 acyl side, *3 side chain or, on linkers, in order; H or OH if unused. Where a SMILES comes first, the peptide text is derived from it. Bridges are numbered along the chain shown (N, C = ends). Roman numbers before positions name the chains, in order. [ ]: non-standard residue; d: D form. Actinocin(9to1) = Cc1c2oc3c(C)ccc(C(=O)[*:1])c3nc-2c(C(=O)[*:2])c(N)c1=O; NMeF = CN[CH](Cc1ccccc1)C(=O)O; Sar = CNCC(=O)O A value given as a limit tells only on which side of the number the result lay.

Test in all cases: NCI-60 cell line screen, 48 h
In experiment [1] the test system is HCT-15 colon.
In experiment [2] the test system is HOP-62 NSCLC.
Experiment [3] concerns MDA-MB-231 breast.
For experiment [4], the system named is K-562 leukemia.
Experiment [5] has as its system RPMI-8226 leukemia.
Experiment [6] has as its system BT-549 breast.
For experiment [7], the system named is NCI-H522 lung.
In experiment [8] the test system is HT29 colon.
Experiment [9] relates to T-47D breast.
In experiment [10] the test system is 786-0 renal.

For `NC(=S)NN=C1CSSC1`, the GI50 in [1] was 1.7 µM; in [2], 2.04 µM; in [3], 1.77 µM; in [4], 27 µM; in experiment [5], 11.4 µM; in experiment [6], 3.37 µM. Further, the GI50 in [7] was 2.95 µM; in [8], 2.31 µM; in [9] it was 4.31 µM; in [10] it was 11.9 µM. For the same compound, the TGI in experiment [1] was 4.75 µM; in experiment [2], 12.2 µM; in [3] it was 9.86 µM; in [4], above 100 µM; in [5], 55.6 µM; in [6], 10.1 µM. Also, the TGI in experiment [7] amounted to 15.4 µM; in [8], 8 µM; in experiment [9] it was 29.1 µM; in [10], 72.5 µM.
Turning to `O=C(c1ccccc1)c1c(C(F)(F)F)n([O-])c2ccc(C(F)(F)F)cc2[n+]1=O`, the GI50 was 0.277 µM in experiment [1]; 0.347 µM in experiment [2]; 0.185 µM in experiment [3]; 0.319 µM in [4]; 0.286 µM in [5]; 0.125 µM in experiment [6]. Also, the GI50 is 0.306 µM in experiment [7], 0.177 µM in experiment [8], 0.372 µM in [9] and 0.167 µM in experiment [10]. For the same compound, the TGI was determined as 0.711 µM in experiment [1]; 0.765 µM in [2]; 0.354 µM in experiment [3]; 0.779 µM in experiment [4]; 0.883 µM in experiment [5]; 0.269 µM in experiment [6]. Also, the TGI in experiment [7] came out at 0.971 µM; in experiment [8], 0.349 µM; in experiment [9], 1.08 µM; in experiment [10] it was 0.307 µM.
For `Cc1c(Cl)cccc1NC(=O)c1sc2nc3c(cc2c1N)CCCCC3`, the GI50 in experiment [1] is 0.195 µM; in experiment [2] it was 0.411 µM; in experiment [3], 0.827 µM; in experiment [4], 0.166 µM; in experiment [5] it was 0.434 µM; in [6] it was 0.252 µM. In addition, the GI50 is 0.187 µM in [7], 0.186 µM in [8], 0.22 µM in experiment [9] and 0.207 µM in [10]. Besides, the TGI in experiment [1] is above 50 µM; in experiment [2] it was 45.3 µM; in experiment [3], above 50 µM; in [4], above 50 µM; in experiment [5], above 50 µM; in [6] it was above 50 µM. Also, the TGI in experiment [7] is 42.3 µM; in experiment [8], 5.02 µM; in [9], above 50 µM; in experiment [10], 14 µM.
Regarding `C[C@@H](Nc1nc(Nc2ccc(F)c(Cl)c2)nc2ccccc12)C1CC1`, the GI50 in [1] was 2.39 µM; in [2], 11.2 µM; in experiment [3], 2.46 µM; in experiment [4], 2.82 µM; in experiment [5] it was 1.33 µM; in [6], 2.51 µM. Further, the GI50 was 4.32 µM in [7], 2.72 µM in [8], 2.7 µM in experiment [9] and 1.69 µM in [10]. Besides, the TGI in [1] worked out at 8.14 µM; in [2], 25 µM; in [3] it was 7.61 µM; in experiment [4] it was 9.75 µM; in experiment [5], 3.81 µM; in experiment [6], 7.3 µM. For the same compound, the TGI is 19.5 µM in experiment [7], 11.7 µM in experiment [8], 14 µM in [9] and 3.45 µM in [10].
With `Cc1c2oc3c(C)ccc(C(=O)NC4C(=O)NC(C(C)C)C(=O)N5CCCC5C(=O)N(C)CC(=O)N(C)C(Cc5ccccc5)C(=O)OC4C)c3nc-2c(C(=O)NC2C(=O)NC(C(C)C)C(=O)N3CCCC3C(=O)N(C)CC(=O)N(C)C(Cc3ccccc3)C(=O)OC2C)c(N)c1=O` (stereo not drawn) (I: TVP[Sar][NMeF] / II: TVP[Sar][NMeF]; ester I:1-I:C, II:1-II:C; linker I:N-II:N via Actinocin(9to1); configuration not given here), the GI50 in experiment [1] was < 0.0147 µM and 0.0622 µM; in experiment [3] it was < 0.01 µM and 0.0317 µM; in experiment [4], 0.00115 µM; in experiment [7] it was 0.00155 µM; in experiment [8], < 0.01 µM and 0.00123 µM; in experiment [10], < 0.01 µM and 0.00327 µM. The TGI is above 31.6 µM in experiment [1]; < 0.0134 µM and 0.0328 µM in experiment [2]; above 1 µM in [5]; 0.151 µM in experiment [6]; 0.0201 µM in [7]; < 0.01 µM and 0.0419 µM in experiment [9]. In [10], this compound returned a TGI above 1 µM.
As to `CC[C@H](C)C(=O)O[C@H]1C[C@H](O)C=C2C=C[C@H](C)[C@H](CC[C@@H](O)C[C@@H](O)CC(=O)O)[C@H]21`, the GI50 in experiment [1], in experiment [2], in experiment [3], in [4], in [5] and in [6] was above 100 µM each time. For the same compound, the GI50 in experiment [7] is 63 µM; in experiment [8], above 100 µM; in experiment [9] it was above 100 µM; in [10] it was above 100 µM. Also, the TGI in [1], in experiment [2], in [3], in experiment [4], in experiment [5] and in experiment [6] was above 100 µM throughout. The TGI in [7], in experiment [8], in experiment [9] and in experiment [10] was above 100 µM each time.
